Marks after values point to notes of the source that are not given here.
How the values were obtained:
Assay type in all cases: biochemical
Cathepsin V [1] = target: T1, Cathepsin V (Homo sapiens, UniProt O60911); assay: Determination of relative inhibition, substrate Z-Phe-Arg-AMC; settings: inhibitor 50 μM; substrate 2 μM; mean ± SD (n = 2); read-out: Cathepsin V Ri (%) relative inhibition
T1 construct: made in house; host or cells: Pichia pastoris
Experimental: (§1) Human recombinant cathepsin V was expressed in Pichia Pastoris, and human recombinant cathepsin L was expressed in Escherichia coli, as reported, [51]. To determine the activities of cathepsins V and L, 100 mM acetate buffer (pH 5.5), containing 0.1 % PEG 8000 (Sigma-Aldrich, St. Louis, MO, USA), 5 mM cysteine, and 1.5 mM EDTA was used. Prior to the assay, the enzyme was activated in the assay buffer for 5 min at 37 °C.
(§2) The effect of the inhibitors on cathepsin V and L activity was determined using the substrate Z-Phe-Arg-AMC (Bachem, Bubendorf, Switzerland). The reaction was initiated by adding 90 μL of the activated enzyme (final concentration 2.5 ng/mL and 0.02 nM for cathepsins V and L, respectively) to the wells of a black microtiter plate containing 5 μL of substrate (with a final concentration 2 μM) and 5 μL of inhibitor (with a final concentration of 50 μM). The formation of fluorescent degradation products during the reaction was monitored continuously at 460 nm ± 10 nm with excitation at 380 nm ± 20 nm at 37 °C on a Tecan Infinite M1000 (Mannedorf, Switzerland) spectrofluorometer. All assay mixtures contained 5 % (v/v) DMSO. To prevent false-positive inhibition due to the formation of compound aggregates, 0.01 % Triton X-100 was used. All measurements were performed in triplicate and repeated at least twice. Relative inhibition was calculated using the following equation: relative inhibition (%) = 100(1- vi/vo), where vi and vo denote the reaction velocities in the presence and absence of the inhibitor, respectively.

[2] = target: T2, human recombinant cathepsin L (Homo sapiens, UniProt P07711); assay: as above; settings: inhibitor 50 μM; substrate 2 μM; mean ± SD (n = 2); read-out: Cathepsin L Ri (%) relative inhibition
T2 construct: made in house; host or cells: Escherichia coli
Experimental: as §1, §2

[3] = target: T2, human recombinant cathepsin L; assay: Determination of Ki values and mode of inhibition; settings: mean ± SD (n = 2)
Experimental: as §1
(§3) Inhibition constants were calculated from reaction velocities measured at three substrate concentrations (0.5, 1, and 4 μM) in the presence of inhibitors at seven concentrations (0, 20, 40, 60, 80, 100, and 200 µM). The reaction was initiated by adding 90 μL of enzyme at final concentrations of 2.5 ng/mL and 0.02 nM for cathepsins V and L, respectively, to the wells of a black microtiter plate containing 5 μL of substrate and 5 μL of inhibitor. To evaluate cathepsin V and L activity, the substrate Z-Phe-Arg-AMC was used. The formation of the fluorescent degradation products was monitored as described above. All assay mixtures contained 5 % (v/v) DMSO. All measurements were performed in duplicates and repeated at least twice. The SigmaPlot® 12, Enzyme Kinetics Module™ 1.3 was used to calculate Ki values.

Cathepsin V [4] = target: T1, Cathepsin V; assay: Determination of Ki values and mode of inhibition; settings: mean ± SD (n = 2)
Experimental: as §1, §3

Cathepsin V [5] = target: T1, Cathepsin V; assay: Determination of binding reversibility (dilution method); settings: inhibitor 100 μM, cathepsin V 500 ng/ml
Experimental: Binding reversibility was determined according to the dilution method, which measures the recovery of enzymatic activity after rapid dilution of the enzyme-inhibitor complex. Cathepsin V (500 ng/ml) was incubated in the assay buffer with the inhibitor (100 μM). Half of the reaction mixture was immediately diluted 100-fold with the assay buffer and added to the wells of a black microplate containing 5 μL of substrate (at a final concentration of 2 μM), and the activity was measured. The other half of the reaction mixture was incubated for 2 h before it was diluted 100-fold, and then the activity was measured. The assay was performed in triplicates and repeated at least two times.

T2 sequence (P07711 114-333): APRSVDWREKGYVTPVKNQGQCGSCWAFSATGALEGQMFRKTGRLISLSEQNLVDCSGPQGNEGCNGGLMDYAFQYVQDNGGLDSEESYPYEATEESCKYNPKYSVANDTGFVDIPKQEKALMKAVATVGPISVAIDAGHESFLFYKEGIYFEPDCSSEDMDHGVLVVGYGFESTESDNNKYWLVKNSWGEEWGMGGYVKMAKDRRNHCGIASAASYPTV
T1 sequence (O60911 114-334): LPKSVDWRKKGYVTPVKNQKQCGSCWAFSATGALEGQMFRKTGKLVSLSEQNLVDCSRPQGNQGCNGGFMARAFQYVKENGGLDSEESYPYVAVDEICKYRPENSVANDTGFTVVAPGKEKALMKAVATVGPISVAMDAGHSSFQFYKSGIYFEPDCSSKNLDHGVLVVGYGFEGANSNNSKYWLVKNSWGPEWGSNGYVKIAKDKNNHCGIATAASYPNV

| Structure (SMILES) | inhibition at 50 µM (Cathepsin V [1]) [%] | inhibition at 50 µM [2] [%] | other results |
| --- | --- | --- | --- |
| O=C(Nc1cc(Cl)ccc1Cl)c1cnc2n(c1=O)CCS2 [Compound 1] | -5.4 ± 2.4 | 4.8 ± 3.9 |  |
| Cc1ccc(Cl)c2sc(NC(=O)c3ccc(S(=O)(=O)N4CCc5ccccc5C4)cc3)nc12 [Compound 2] | 16.4 ± 0.3 | 20 ± 2.2 | Ki [3]: 162 ± 1.8 µM |
| Cc1cc(C)c2sc(NC(=O)c3ccc(S(=O)(=O)N4CCc5ccccc5C4)cc3)nc2c1 [Compound 3] |  | 147 ± 88.7 |  |
| COc1ccc(NC(C)=O)cc1NC(=O)c1n[nH]c2ccccc12 [Compound 6] | > 20 | 40.3 ± 4.5 | Ki (Cathepsin V [4]): 371 ± 86.1 µM; Ki [3]: 635 ± 167 µM |
| O=C(NCCN1CCN(c2ccc(Cl)cc2)CC1)[C@H]1CC(=O)N(c2ccccc2)C1 [Compound 8] | -20.3 ± 3.5 | -4.4 ± 2.1 |  |
| COc1ccc(-c2cn3c(CCC(=O)Nc4nc5ccccc5s4)csc3n2)cc1 [Compound 9] | 18.9 ± 1.3 | 17.5 ± 5.3 |  |
| O=C(NCc1cccc2ccccc12)Nc1ccc2c(c1)CCCN2C(=O)c1cccs1 [Compound 10] | 17.8 ± 3.3 | 21.5 ± 1.2 |  |
| Brc1ccccc1CNc1ncncc1-c1nc(-c2ccsc2)no1 [Compound 11] | -3.1 ± 4.6 | 6.3 ± 2.6 |  |
| CC1Oc2ccccc2OC1C(=O)NCC#CCN1CCc2ccccc2C1 (stereo not shown) [Compound 12] | -9.5 ± 9.2 | 15.6 ± 1.2 |  |
| O=C(Nc1ccc(F)cc1)OC1CCCC(NC(=O)c2c(F)cccc2F)C1 (stereo not shown) [Compound 13] | 7.5 ± 5 | 13.4 ± 1.4 |  |
| O=C(NC[C@H]1CCCN1c1ccccc1)c1cccnc1 [Compound 14] | 7.8 ± 3.1 | 13.1 ± 2.6 |  |
| Cc1c(C(=O)N2CC(N3CCc4ccccc4C3)C2)cnn1-c1ccccc1 [Compound 15] | -27.6 ± 9.1 | -5.4 ± 7.3 |  |
| Cc1nccc(O[C@H]2CCN(S(=O)(=O)/C=C/c3ccccc3)C2)n1 [Compound 16] | -6.5 ± 0.9 | -1 ± 4.8 |  |
| Cc1cc(CNC(=O)Cc2cccc3ccccc23)ncn1 [Compound 17] | -2.4 ± 5.6 | 9.4 ± 9.5 |  |
| Cc1noc(-c2cccn3c(CNC(=O)c4cc(-c5cccs5)n[nH]4)nnc23)n1 [Compound 18] | 6.7 ± 0.03 | 13 ± 7.9 |  |
| O=C(NCc1nnc2c(C(F)(F)F)cccn12)c1cc(-c2cccs2)n[nH]1 [Compound 19] | 3.8 ± 3.5 | 17.8 ± 13.7 |  |
| O=C(NCc1nnc2c(C(F)(F)F)cccn12)c1cc2cc(Cl)ccc2[nH]1 [Compound 20] | 16.9 ± 0.6 | 14.5 ± 2.4 |  |
| COC(=O)Cc1c[nH]c2ccc(OCC3CO3)cc12 (stereo not shown) [Compound 21] | > 20 | 15.3 ± 2.9 | Ki (Cathepsin V [4]): 159 ± 32.8 µM; Ki [3]: 236 ± 10.3 µM |
| COc1ccc(C(=O)C2OC2c2cc3ccccc3o2)c(OCc2ccccc2)c1 (stereo not shown) [Compound 22] | -7.2 ± 7.7 | 11.1 ± 4.4 |  |
| O=c1cc(-c2ccccc2)c2cc(Cl)c(OCC3CO3)cc2o1 (stereo not shown) [Compound 23] | -2.9 ± 1.8 | 11.9 ± 6.2 |  |
| O=C(c1cc(F)ccc1OCc1ccccc1)C1OC1c1ccc2c(c1)OCCO2 (stereo not shown) [Compound 24] | 0.8 ± 3.3 | 17.7 ± 11.7 |  |
| O=C(c1cc(Br)ccc1OCc1ccccc1)C1OC1c1cc2ccccc2o1 (stereo not shown) [Compound 26] | 6.3 ± 4.6 | 10.6 ± 4.5 | Ki [3]: 375 ± 20.5 µM |
| O=C(N[C@H]1CCCN(Cc2ccccc2)C1)c1ccc(CN2CCCC2)o1 [Compound 28] | 1.1 ± 9 | -4.6 ± 5.2 |  |

| Structure (SMILES) | inhibition at 50 µM (Cathepsin V [1]) [%] | inhibition at 50 µM [2] [%] | other results |
| --- | --- | --- | --- |
| O=C(CN1Cc2ccccc2C1)NC1CCCN(Cc2cccc(O)c2)C1 (stereo not shown) [Compound 29] | -0.5 ± 1.2 | -2.4 ± 2 |  |
| CN(C)c1ccc(CC(=O)NC2CCCN(Cc3cccnc3)C2)cc1 (stereo not shown) [Compound 30] | -2 ± 3.3 | -1.2 ± 0.3 |  |
| O=C(Nc1nc2c(s1)CN(Cc1ccccc1)CC2)c1ccc(-c2ccccc2)cc1 [Compound 31] | 29.2 ± 7 | 20.9 ± 7.2 |  |
| O=C(Nc1nc2c(s1)CN(Cc1ccccc1)CC2)c1ccccc1 [Compound 32] | 6.9 ± 2.2 | 4.7 ± 3.2 |  |
| CCOC(=O)N1CCC(NC(=O)NCc2ccc(OC)cc2)CC1 [Compound 33] | -1.6 ± 6.5 | 3.4 ± 4.4 |  |
| CC(=O)N1CCc2cc(C(=O)C(C)OC(=O)CCc3nc(-c4cccs4)no3)ccc21 (stereo not shown) [Compound 34] |  | -3 ± 0.5 |  |
| O=C(NCC(O)CN1CCOCC1)c1cc2cc(Br)ccc2[nH]1 (stereo not shown) [Compound 35] | 16.6 ± 8.4 | 12 ± 1.3 |  |
| COc1ccc(CNC(=O)N2CCC(C(N)=O)CC2)cc1 [Compound 36] | 15.2 ± 10 | -0.6 ± 1.7 |  |
| Cc1[nH]c(C(=O)NCCCc2nc3ccccc3[nH]2)c(C)c1C(=O)OC(C)C [Compound 37] | -3.4 ± 2.9 | -2.1 ± 0.7 |  |
| CNC(=O)C1(COC)CCCN1C(=O)CN1CCOCC1=O (stereo not shown) [Compound 38] | 7.9 ± 0.4 | 2.3 ± 3.1 |  |
| Cc1nc(C2OC2C(=O)c2ccccc2OCc2ccccc2)cs1 (stereo not shown) [Compound 39] | 17.1 ± 7.2 | 6.1 ± 0.7 | Ki (Cathepsin V [4]): 403 ± 79.7 µM; Cathepsin L Ki′ (µM) [3]: 725.7 ± 142.3^e µM; Ki [3]: 726 ± 142 µM |
| O=C(NCc1ccc(F)cc1)NCC1CCN(C(=O)Oc2ccccc2)CC1 [Compound 41] | 17.7 ± 6.1 | 4.2 ± 0.9 | Cathepsin V Ki′ (µM) (Cathepsin V [4]): 612.5 ± 23.9^e µM; Ki (Cathepsin V [4]): 612 ± 23.9 µM; Cathepsin L Ki (µM) [3]: n.i.^g; Cathepsin L Ki′ (µM) [3]: n.i.^g |
| COCCN1CCC(CNC(=O)NCc2ccc(OC)cc2)CC1 [Compound 43] | 5.2 ± 1.8 | -0.4 ± 2.5 |  |
| COC(=O)N1CCC(CNC(=O)NCc2cccc3ccccc23)CC1 [Compound 44] | 11.1 ± 11.5 | 1.1 ± 4.9 |  |
| COC(=O)N1CCC(CNC(=O)NC(c2ccccc2)c2ccccc2)CC1 [Compound 45] | 9.2 ± 6.4 | 3.3 ± 2.4 |  |
| COc1ccc(CNC(=O)NCC2CCN(C(=O)N(C)C)CC2)cc1 [Compound 46] | 12.1 ± 9.8 | 4.3 ± 4.1 |  |
| COc1ccc(CNC(=O)NCC2CCN(C(=O)Oc3ccccc3)CC2)cc1 [Compound 47] | 9.5 ± 2.5 | 4.4 ± 4.6 |  |
| O=C(NCC1CCN(C(=O)Oc2ccccc2)CC1)c1ccccc1 [Compound 48] | 20.4 ± 14.5 | 5.7 ± 3.6 | Ki (Cathepsin V [4]): 1190 ± 468 µM; Ki [3]: 1190 ± 357 µM |
| Cc1cc(OCc2ccccc2)c(C(=O)C2OC2c2csc(-c3ccccc3)n2)cc1C (stereo not shown) [Compound 49] | 22.9 ± 1 | 12.9 ± 0.5 | Ki (Cathepsin V [4]): 303 ± 11.3 µM; Ki [3]: 546 ± 114 µM |
| COc1ccc(CNC(=O)N2CCC(C(=O)N3CCCCC3)CC2)cc1 [Compound 50] | -2.9 ± 4 | 13.8 ± 0.5 |  |
| O=C(NC(Cc1ccccc1)C(=O)O)C1CCC(CNC(=O)C2Cc3ccccc3CN2)CC1 (stereo not shown) [Compound 51] | -9.8 ± 5.8 | -4 ± 7.3 |  |
| COC(=O)Cc1c[nH]c2ccc(OCC(O)CNC(C)C)cc12 (stereo not shown) [Compound 52] | 0.3 ± 8.8 | -0.7 ± 1.5 |  |
| CC(C)C[C@H](NC(=O)[C@H]1O[C@@H]1C(=O)O)C(=O)NCCCCN=C(N)N [Compound E-64, reference compound] |  |  | binding reversibility: cathepsin V activity after 2 h incubation and 100-fold rapid dilution (Cathepsin V [5]): remained inhibited |
